Measured values from PubChem BioAssay AID2060898 (Molecular Pharmacology Branch, DTP, NCI, 2025).
One block for each compound: values may come before it.

Tested on: 616215-338-R-J1-PDC complex spheroid viability
Experiment: Anticancer human tumor 616215-338-R-J1-PDC patient-derived colon adenocarcinoma cell line growth inhibition [RAS]
Settings: for IC50: curve of first compound; for viability, T/C: stronger effect = lower value
Procedure, shortened: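 Multi-cell-type spheroids: tumor cells plus HUVEC endothelial cells and mesenchymal stem cells. RAS-pathway inhibitors were combined with targeted agents, each dosed in half-log steps down from clinical Cmax, or from 10 microM when Cmax was unknown.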

[1] = second compound 0.00316 µM, first compound 0.0316 µM
[2] = second compound 0.00316 µM, first compound 0.1 µM
[3] = second compound 0.00316 µM, first compound 0.316 µM
[4] = second compound 0.00316 µM, first compound 1 µM
[5] = second compound 0.00316 µM, first compound 3.16 µM
[6] = second compound 0.00316 µM, first compound 10 µM
[7] = second compound 0.01 µM, first compound 0.0316 µM
[8] = second compound 0.01 µM, first compound 0.1 µM
[9] = second compound 0.01 µM, first compound 0.316 µM
[10] = second compound 0.01 µM, first compound 1 µM
[11] = second compound 0.01 µM, first compound 3.16 µM
[12] = second compound 0.01 µM, first compound 10 µM
[13] = second compound 0.0316 µM, first compound 0.0316 µM
[14] = second compound 0.0316 µM, first compound 0.1 µM
[15] = second compound 0.0316 µM, first compound 0.316 µM
[16] = second compound 0.0316 µM, first compound 1 µM
[17] = second compound 0.0316 µM, first compound 3.16 µM
[18] = second compound 0.0316 µM, first compound 10 µM
[19] = second compound 0.1 µM, first compound 0.0316 µM
[20] = second compound 0.1 µM, first compound 0.1 µM
[21] = second compound 0.1 µM, first compound 0.316 µM
[22] = second compound 0.1 µM, first compound 1 µM
[23] = second compound 0.1 µM, first compound 3.16 µM
[24] = second compound 0.1 µM, first compound 10 µM
[25] = second compound 0.316 µM, first compound 0.0316 µM
[26] = second compound 0.316 µM, first compound 0.1 µM
[27] = second compound 0.316 µM, first compound 0.316 µM
[28] = second compound 0.316 µM, first compound 1 µM
[29] = second compound 0.316 µM, first compound 3.16 µM
[30] = second compound 0.316 µM, first compound 10 µM
[31] = second compound 1 µM, first compound 0.0316 µM
[32] = second compound 1 µM, first compound 0.1 µM
[33] = second compound 1 µM, first compound 0.316 µM
[34] = second compound 1 µM, first compound 1 µM
[35] = second compound 1 µM, first compound 3.16 µM
[36] = second compound 1 µM, first compound 10 µM
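Note: spheroids exposed to agents for seven days before viability readout.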
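Throughout, for viability, T/C: 100% = DMSO vehicle control viability.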

IC50 (second compound 0.00316 µM): 0.295 µM | IC50 (second compound 0.01 µM): 1.34 µM | IC50 (second compound 0.0316 µM): 1.1 µM | IC50 (second compound 0.1 µM): 1.13 µM | IC50 (second compound 0.316 µM): 1.06 µM | IC50 (second compound 1 µM): 1.18 µM
SMILES: CC1(O)CCCC1n1c(=O)c(C(F)F)cc2cnc(NC3CCN(S(C)(=O)=O)CC3)nc21 (stereo unspecified) + C=CC(=O)N1CCN(c2nc(OCC3CCCN3C)nc3c(F)c(-c4nc(N)cc(C)c4C(F)(F)F)c(Cl)cc23)C(C)C1
viability, T/C [1]: 115% | viability, T/C [2]: 125% | viability, T/C [3]: 45.5% | viability, T/C [4]: 52.3% | viability, T/C [5]: 46.1% | viability, T/C [6]: 3.51% | viability, T/C [7]: 124% | viability, T/C [8]: 115% | viability, T/C [9]: 49.8% | viability, T/C [10]: 60.2% | viability, T/C [11]: 49.4% | viability, T/C [12]: 3.84% | viability, T/C [13]: 113% | viability, T/C [14]: 113% | viability, T/C [15]: 50.3% | viability, T/C [16]: 51.6% | viability, T/C [17]: 48.7% | viability, T/C [18]: 1.4% | viability, T/C [19]: 111% | viability, T/C [20]: 114% | viability, T/C [21]: 58% | viability, T/C [22]: 55.4% | viability, T/C [23]: 39.6% | viability, T/C [24]: 1.02% | viability, T/C [25]: 117% | viability, T/C [26]: 107% | viability, T/C [27]: 54.8% | viability, T/C [28]: 49% | viability, T/C [29]: 44.5% | viability, T/C [30]: 1.06% | viability, T/C [31]: 117% | viability, T/C [32]: 108% | viability, T/C [33]: 58.1% | viability, T/C [34]: 53.2% | viability, T/C [35]: 46.3% | viability, T/C [36]: 2.1%

IC50 (second compound 0.00316 µM): > 1 µM | IC50 (second compound 0.01 µM): > 1 µM | IC50 (second compound 0.0316 µM): > 1 µM | IC50 (second compound 0.1 µM): > 1 µM | IC50 (second compound 0.316 µM): > 1 µM | IC50 (second compound 1 µM): > 1 µM
SMILES: CCN1CCN(Cc2ccc(Nc3ncc(F)c(-c4cc(F)c5nc(C)n(C(C)C)c5c4)n3)nc2)CC1 + C=CC(=O)N1CCN(c2nc(OCC3CCCN3C)nc3c(F)c(-c4nc(N)cc(C)c4C(F)(F)F)c(Cl)cc23)C(C)C1
viability, T/C (second compound 0.00316 µM, first compound 0.00316 µM): 110% | viability, T/C (second compound 0.00316 µM, first compound 0.01 µM): 110% | viability, T/C [1]: 121% | viability, T/C [2]: 118% | viability, T/C [3]: 150% | viability, T/C [4]: 65% | viability, T/C (second compound 0.01 µM, first compound 0.00316 µM): 112% | viability, T/C (second compound 0.01 µM, first compound 0.01 µM): 120% | viability, T/C [7]: 114% | viability, T/C [8]: 123% | viability, T/C [9]: 145% | viability, T/C [10]: 56.2% | viability, T/C (second compound 0.0316 µM, first compound 0.00316 µM): 113% | viability, T/C (second compound 0.0316 µM, first compound 0.01 µM): 124% | viability, T/C [13]: 116% | viability, T/C [14]: 119% | viability, T/C [15]: 143% | viability, T/C [16]: 71.4% | viability, T/C (second compound 0.1 µM, first compound 0.00316 µM): 102% | viability, T/C (second compound 0.1 µM, first compound 0.01 µM): 102% | viability, T/C [19]: 118% | viability, T/C [20]: 117% | viability, T/C [21]: 141% | viability, T/C [22]: 64.2% | viability, T/C (second compound 0.316 µM, first compound 0.00316 µM): 114% | viability, T/C (second compound 0.316 µM, first compound 0.01 µM): 109% | viability, T/C [25]: 113% | viability, T/C [26]: 131% | viability, T/C [27]: 131% | viability, T/C [28]: 59.3% | viability, T/C (second compound 1 µM, first compound 0.00316 µM): 117% | viability, T/C (second compound 1 µM, first compound 0.01 µM): 116% | viability, T/C [31]: 109% | viability, T/C [32]: 120% | viability, T/C [33]: 154% | viability, T/C [34]: 67.7%

IC50 (second compound 0.00316 µM): > 10 µM | IC50 (second compound 0.01 µM): > 10 µM | IC50 (second compound 0.0316 µM): > 10 µM | IC50 (second compound 0.1 µM): 9.75 µM | IC50 (second compound 0.316 µM): > 10 µM | IC50 (second compound 1 µM): > 10 µM
SMILES: C[C@@H](NC(=O)c1ncnc(N)c1Cl)c1ncc(C(=O)Nc2cc(C(F)(F)F)c(Cl)cn2)s1 + C=CC(=O)N1CCN(c2nc(OCC3CCCN3C)nc3c(F)c(-c4nc(N)cc(C)c4C(F)(F)F)c(Cl)cc23)C(C)C1
viability, T/C [1]: 109% | viability, T/C [2]: 111% | viability, T/C [3]: 120% | viability, T/C [4]: 140% | viability, T/C [5]: 118% | viability, T/C [6]: 53.5% | viability, T/C [7]: 106% | viability, T/C [8]: 114% | viability, T/C [9]: 121% | viability, T/C [10]: 120% | viability, T/C [11]: 97.1% | viability, T/C [12]: 59.9% | viability, T/C [13]: 102% | viability, T/C [14]: 112% | viability, T/C [15]: 114% | viability, T/C [16]: 119% | viability, T/C [17]: 122% | viability, T/C [18]: 59.5% | viability, T/C [19]: 118% | viability, T/C [20]: 103% | viability, T/C [21]: 113% | viability, T/C [22]: 114% | viability, T/C [23]: 107% | viability, T/C [24]: 48.6% | viability, T/C [25]: 114% | viability, T/C [26]: 104% | viability, T/C [27]: 113% | viability, T/C [28]: 117% | viability, T/C [29]: 116% | viability, T/C [30]: 65% | viability, T/C [31]: 112% | viability, T/C [32]: 98.6% | viability, T/C [33]: 111% | viability, T/C [34]: 131% | viability, T/C [35]: 112% | viability, T/C [36]: 61.2%
